Assay results taken from patent US8829007B2 (priority 2009, dated 2014).

system: influenza A virus (A/PR/8/34); assay: microbe, parasite or virus in culture; type: cell-based; settings: Influenza A virus, PR/8, MDCK, MDCK cells infected with A/PR/8/34; survival of infected cells; class symbols; read-out: IC50 (mean all)

Molecule	IC50 [µM]
COC(=O)N1CCCC(Nc2nc(-c3c[nH]c4ncc(Cl)cc34)ncc2F)CC1 (centres unmarked) [Compound 498, methyl 4-(2-(5-chloro-1H-pyrrolo[2,3-b]pyridin-3-yl)-5-fluoropyrimidin-4-ylamino)azepane-1-carboxylate]	< 5
O=C1NCCCC[C@@H]1Nc1ccnc(-c2c[nH]c3ncc(F)cc23)n1 [Compound 501]	5 to 20
O=C1CC[C@H](CNc2nc(-c3c[nH]c4ncc(Cl)cc34)ncc2F)N1 [Compound 503]	< 5
CC(C)(C)OC(=O)N1CCOCC1CNc1nc(-c2c[nH]c3ncc(Cl)cc23)ncc1F (centres unmarked) [Compound 515, Tert-Butyl 3-((2-(5-chloro-1H-pyrrolo[2,3-b]pyridin-3-yl)-5-fluoropyrimidin-4-ylamino)methyl)morpholine-4-carboxylate]	> 20
CCC(=O)N1CCOCC1CNc1nc(-c2c[nH]c3ncc(Cl)cc23)ncc1F (centres unmarked) [Compound 516, 1-(3-((2-(5-chloro-1H-pyrrolo[2,3-b]pyridin-3-yl)-5-fluoropyrimidin-4-ylamino)methyl)morpholino)propan-1-one]	5 to 20
CCCNC(=O)N1CCOCC1CNc1nc(-c2c[nH]c3ncc(Cl)cc23)ncc1F (centres unmarked) [Compound 517, 3-((2-(5-chloro-1H-pyrrolo[2,3-b]pyridin-3-yl)-5-fluoropyrimidin-4-ylamino)methyl)-N-propylmorpholine-4-carboxamide]	5 to 20
CCN(CC)C(=O)[C@@H]1CCCC[C@@H]1Nc1nc(-c2c[nH]c3ncc(Cl)cc23)ncc1F [Compound 518, (1R,2S)-2-(2-(5-chloro-1H-pyrrolo[2,3-b]pyridin-3-yl)-5-fluoropyrimidin-4-ylamino)-N,N-diethylcyclohexanecarboxamide]	> 20
CCNC(=O)[C@@H]1CCCC[C@@H]1Nc1nc(-c2c[nH]c3ncc(Cl)cc23)ncc1F [Compound 519, (1R,2S)-2-(2-(5-chloro-1H-pyrrolo[2,3-b]pyridin-3-yl)-5-fluoropyrimidin-4-ylamino)-N-ethylcyclohexanecarboxamide]	5 to 20
CCN(CC)C(=O)[C@H]1CCCC[C@@H]1Nc1nc(-c2c[nH]c3ncc(Cl)cc23)ncc1F [Compound 520]	> 20
CCNC(=O)[C@H]1CCCC[C@@H]1Nc1nc(-c2c[nH]c3ncc(Cl)cc23)ncc1F [Compound 521, (1S,2S)-2-(2-(5-chloro-1H-pyrrolo[2,3-b]pyridin-3-yl)-5-fluoropyrimidin-4-ylamino)-N-ethylcyclohexanecarboxamide]	5 to 20
CN(C)[C@H]1CCCC[C@@H]1Nc1nc(-c2c[nH]c3ncc(Cl)cc23)ncc1F [Compound 523, (1S,2S)—N1-(2-(5-chloro-1H-pyrrolo[2,3-b]pyridin-3-yl)-5-fluoropyrimidin-4-yl)-N2,N2-dimethylcyclohexane-1,2-diamine]	> 20

same assay, conditions: MDCK cells infected with A/PR/8/34; survival of infected cells; class symbols; read-out: IC50 (mean all)

Molecule	IC50 [µM]
CS(=O)(=O)N1CC(Nc2nc(-c3c[nH]c4ncc(Cl)cc34)ncc2F)C1 [Compound 508]	> 20
NC1CCCC(Nc2ccnc(-c3c[nH]c4ncc(Cl)cc34)n2)C1 (centres unmarked) [Compound 510]	> 20

same assay, conditions: read-out: IC50

Molecule	IC50 [µM]
COP(=O)(OC)[C@@]1(O)CCC[C@H](Nc2nc(-c3c[nH]c4ncc(Cl)cc34)ncc2F)C1 [Compound 741]	< 5
COP(=O)(OC)[C@]1(O)CCC[C@H](Nc2nc(-c3c[nH]c4ncc(Cl)cc34)ncc2F)C1 [Compound 742]	< 5

same assay, conditions: read-out: IC50 (mean all)

Molecule	IC50 [µM]
(R)-ethyl 3-((2-(5-chloro-1H-pyrrolo[2,3-b]pyridin-3-yl)pyrimidin-4-ylamino)methyl)piperidine-1-carboxylate [Compound 495]	5 to 20
(S)-6-(2-(5-chloro-1H-pyrrolo[2,3-b]pyridin-3-yl)-5-fluoropyrimidin-4-ylamino)-4-(4-methoxybenzyl)-1,4-oxazepan-2-one [Compound 505]	5 to 20

system: A/PR/8/34 influenza virus; assay: microbe, parasite or virus in culture; type: cell-based; settings: Influenza A virus, PR/8, MDCK, MDCK cells infected with A/PR/8/34, bDNA viral RNA; read-out: EC50 (mean all)

Molecule	EC50 [µM]
Fc1cnc(-c2c[nH]c3ncc(Cl)cc23)nc1N[C@H]1CCCN(CC(F)F)C1 [Compound 1, (S)-2-(5-chloro-1H-pyrrolo[2,3-b]pyridin-3-yl)-N-(1-(2,2-difluoroethyl)piperidin-3-yl)-5-fluoropyrimidin-4-amine]	< 5

same assay, conditions: Influenza A virus, PR/8, MDCK, MDCK cells infected with A/PR/8/34; replication of influenza virus (viral RNA, bDNA); class symbols; read-out: EC50 (mean all)

Molecule	EC50 [µM]
CS(=O)(=O)N[C@@H]1CCCC[C@H]1CNc1nc(-c2c[nH]c3ncc(Cl)cc23)ncc1F (relative stereo) [Compound 557, N-(trans-2-((2-(5-chloro-1H-pyrrolo[2,3-b]pyridin-3-yl)-5-fluoropyrimidin-4-ylamino)methyl)cyclohexyl)methanesulfonamide]	< 5
C[C@@]1(C(=O)O)CCCC[C@H]1Nc1nc(-c2c[nH]c3ncc(Cl)cc23)ncc1F (stereo in doubt) [Compound 582, Trans-2-(2-(5-chloro-1H-pyrrolo[2,3-b]pyridin-3-yl)-5-fluoropyrimidin-4-ylamino)-1-methylcyclohexanecarboxylic acid]	< 5
CC(C)(O)CN1CCC[C@H](Nc2nc(-c3c[nH]c4ncc(Cl)cc34)ncc2F)C1 [Compound 546]	< 5
COC(=O)N[C@H]1CCC[C@@H](Nc2nc(-c3c[nH]c4ncc(Cl)cc34)ncc2F)C1 [Compound 548, Methyl N-[(1S,3R)-3-[[2-(5-chloro-1H-pyrrolo[2,3-b]pyridin-3-yl)-5-fluoro-pyrimidin-4-yl]amino]cyclohexyl]carbamate]	< 5
CN(C)C(=O)N[C@H]1CCC[C@@H](Nc2nc(-c3c[nH]c4ncc(Cl)cc34)ncc2F)C1 [Compound 549, 3-[(1S,3R)-3-[[2-(5-chloro-1H-pyrrolo[2,3-b]pyridin-3-yl)-5-fluoro-pyrimidin-4-yl]amino]cyclohexyl]-1,1-dimethyl-urea]	< 5
COCC(O)CN1CC[C@H](C)[C@H](Nc2nc(-c3c[nH]c4ncc(Cl)cc34)ncc2F)C1 (some centres unmarked) [Compound 550]	< 5
CC(C)OCC(O)CN1CCCC(Nc2nc(-c3c[nH]c4ncc(Cl)cc34)ncc2F)C1 [Compound 551, 1-((S)-3-((2-(5-chloro-1H-pyrrolo[2,3-b]pyridin-3-yl)-5-fluoropyrimidin-4-ylamino)piperidin-1-yl)-3-isopropoxypropan-2-ol]	< 5
COC1CCC[C@H](Nc2nc(-c3c[nH]c4ncc(Cl)cc34)ncc2F)C1 (stereo partly drawn) [Compound 552, 2-(5-chloro-1H-pyrrolo[2,3-b]pyridin-3-yl)-5-fluoro-N-((1S)-3-methoxycyclohexyl)pyrimidin-4-amine]	< 5
CC(C(=O)O)N1CCCC(Nc2nc(-c3c[nH]c4ncc(Cl)cc34)ncc2F)C1 [Compound 573, 2-((S)-3-((2-(5-chloro-1H-pyrrolo[2,3-b]pyridin-3-yl)-5-fluoropyrimidin-4-ylamino)piperidin-1-yl)propanoic acid]	< 5
COCCOC(=O)[C@H]1CCCC[C@@H]1Nc1nc(-c2c[nH]c3ncc(Cl)cc23)ncc1F [Compound 574, (1S,2S)-2-methoxyethyl 2-(2-(5-chloro-1H-pyrrolo[2,3-b]pyridin-3-yl)-5-fluoropyrimidin-4-ylamino)cyclohexanecarboxylate]	< 5
COC(=O)[C@H]1CCCC[C@@H]1Nc1nc(-c2c[nH]c3ncc(Cl)cc23)ncc1F [Compound 575, (1S,2S)-methyl 2-(2-(5-chloro-1H-pyrrolo[2,3-b]pyridin-3-yl)-5-fluoropyrimidin-4-ylamino)cyclohexanecarboxylate]	< 5
CC(=O)N[C@@H]1CCC[C@H](Nc2nc(-c3c[nH]c4ncc(Cl)cc34)ncc2F)C1 [Compound 576, N-[(1R,3S)-3-[[2-(5-chloro-1H-pyrrolo[2,3-b]pyridin-3-yl)-5-fluoro-pyrimidin-4-yl]amino]cyclohexyl]acetamide]	< 5
O=C(O)CN1CCC[C@H](Nc2nc(-c3c[nH]c4ncc(Cl)cc34)ncc2F)C1 [Compound 577]	< 5
O=C(O)[C@H]1CCCC[C@H]1Nc1nc(-c2c[nH]c3ncc(Cl)cc23)ncc1F [Compound 579, (1S,2R)-2-(2-(5-chloro-1H-pyrrolo[2,3-b]pyridin-3-yl)-5-fluoropyrimidin-4-ylamino)cyclohexanecarboxylic acid]	< 5
CC(C(N)=O)N1CCCC(Nc2nc(-c3c[nH]c4ncc(Cl)cc34)ncc2F)C1 [Compound 583, 2-((S)-3-((2-(5-chloro-1H-pyrrolo[2,3-b]pyridin-3-yl)-5-fluoropyrimidin-4-ylamino)piperidin-1-yl)propanamide]	< 5
COCCC(=O)N1CCC(F)(F)CC1CNc1nc(-c2c[nH]c3ncc(Cl)cc23)ncc1F (centres unmarked) [Compound 584, 1-(2-((2-(5-chloro-1H-pyrrolo[2,3-b]pyridin-3-yl)-5-fluoropyrimidin-4-ylamino)methyl)-4,4-difluoropiperidin-1-yl)-3-methoxypropan-1-one]	< 5

same assay, conditions: Influenza A virus, PR/8, mean all; replication of A/PR/8/34 influenza virus (bDNA assay); read-out: EC50

Molecule	EC50 [µM]
C[C@]1(C(=O)O)CCC[C@H](Nc2nc(-c3c[nH]c4ncc(Cl)cc34)ncc2F)[C@H]1O (single isomer, unassigned) [Compound 928]	< 5

same assay, conditions: MDCK cells infected with A/PR/8/34; replication of influenza virus (viral RNA, bDNA); class symbols; read-out: EC50 (mean all)

Molecule	EC50 [µM]
CC(=O)N[C@@H]1CCC[C@H](Nc2nc(-c3c[nH]c4ncc(Cl)cc34)ncc2F)C1 [Compound 547, N-[(1R,3S)-3-[[2-(5-chloro-1H-pyrrolo[2,3-b]pyridin-3-yl)-5-fluoro-pyrimidin-4-yl]amino]cyclohexyl]acetamide]	< 5
CC1(O)CCCCCC1Nc1nc(-c2c[nH]c3ncc(Cl)cc23)ncc1F (centres unmarked) [Compound 581]	< 5

same assay, conditions: […]; replication of influenza virus (viral RNA, bDNA); class symbols; read-out: EC50 (mean all)

Molecule	EC50 [µM]
CC[C@]1(C(=O)O)CCCC[C@H]1Nc1nc(-c2c[nH]c3ncc(Cl)cc23)ncc1F (relative stereo) [Compound 585, cis-2-(2-(5-chloro-1H-pyrrolo[2,3-b]pyridin-3-yl)-5-fluoropyrimidin-4-ylamino)-1-ethylcyclohexanecarboxylic acid]	< 5
